Assay results reported in ChEMBL document CHEMBL4007466, “Bioactive drimane sesquiterpenoids and aromatic glycosides from Cinnamosma fragrans” (Bioorg Med Chem Lett, 2017).

test system: MCF7; assay: Antiproliferative activity against human MCF7 cells by SRB assay; type: functional, cell-based

IC50	Structure (SMILES)
1.6 µM	CC(=O)O[C@@H]1C=C(C=O)[C@@](O)(C=O)[C@@]2(C)CCCC(C)(C)[C@H]12
> 20 µM	C[C@@H]1O[C@@H](OC[C@H]2O[C@@H](OC(=O)[C@@]3(C)CCC[C@]4(C)C5=C(COC5=O)[C@@H](O)C[C@@H]34)[C@H](O)[C@@H](O)[C@@H]2O)[C@H](O)[C@H](O)[C@H]1O
1.3 µM	CC(=O)O[C@@H]1C=C2C(=O)OC[C@]2(O)[C@@]2(C)CCCC(C)(C)[C@H]12 [CINNAMOSMOLIDE]
> 20 µM	CC1=C(C=O)[C@@]2(C)CCCC(C)(C)[C@@H]2CC1=O
3.7 µM	CC(=O)O[C@@H]1C=C2C(=O)O[C@@H]3O[C@H](C4=C[C@@H](OC(C)=O)[C@H]5C(C)(C)CCC[C@]5(C)C4=O)O[C@@]23[C@@]2(C)CCCC(C)(C)[C@H]12
> 20 µM	O=Cc1ccc(O[C@@H]2O[C@H](CO)[C@@H](O)[C@@H](O)[C@H]2O)cc1 [HELICIDE]
2 µM	CC(=O)O[C@@H]1C=C([C@H]2O[C@@H]3OC(=O)C4=C[C@@H](OC(C)=O)[C@H]5C(C)(C)CCC[C@]5(C)[C@]43O2)[C@](O)(C=O)[C@@]2(C)CCCC(C)(C)[C@H]12
> 20 µM	Cc1ccc2c(c1)C(C(C)C)CCC2=O (centres undefined)
> 20 µM	CC1(C)CCC[C@]2(C)[C@H]3COC(=O)C3=CC[C@@H]12 [CINNAMOLIDE]
> 20 µM	COc1cc(O[C@@H]2O[C@H](CO[C@@H]3OC[C@](O)(CO)[C@H]3O)[C@@H](O)[C@H](O)[C@H]2O)cc(OC)c1OC
12.4 µM	CC1(C)CCC[C@]2(C)[C@@H](C=O)C(C=O)=CC[C@@H]12 [POLYGODIAL]
> 20 µM	COc1ccc(O[C@@H]2O[C@H](CO[C@@H]3OC[C@](O)(CO)[C@H]3O)[C@@H](O)[C@H](O)[C@H]2O)cc1OC

Structure (SMILES)	IC50
CC[C@@]1(O)C(=O)OCc2c1cc1n(c2=O)Cc2cc3ccccc3nc2-1 [CAMPTOTHECIN]	0.03 µM
CC(=O)O[C@@H]1C=C([C@H]2O[C@@H]3OC(O)C4=C[C@@H](OC(C)=O)[C@H]5C(C)(C)CCC[C@]5(C)[C@]43O2)[C@](O)(C=O)[C@@]2(C)CCCC(C)(C)[C@H]12 (some centres undefined)	0.6 µM
